Where “and” joins values, the source holds several entries; their conditions need not be identical. Equal values may be shown once.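 1) Cells in 96-well plates. 2) Compound, 48 h, 5 concentrations. 3) Linear interpolation between surrounding doses. 4) Unreached endpoint = highest concentration. Abbreviation: GI50, concentration required for 50% inhibition of growth. TGI: total growth inhibition.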
Experiments:
Assay in all cases: inhibition of tumour cell growth, NCI panel, 48 h
786-0 renal = tested on: 786-0 renal
A498 renal = tested on: A498 renal
A549 NSCLC = tested on: A549 NSCLC
ACHN renal = tested on: ACHN renal
BT-549 breast = tested on: BT-549 breast
CAKI-1 renal = tested on: CAKI-1 renal
CCRF-CEM leukemia = tested on: CCRF-CEM leukemia
COLO 205 colon = tested on: COLO 205 colon
DU-145 prostate = tested on: DU-145 prostate
EKVX NSCLC = tested on: EKVX NSCLC
HCC-2998 colon = tested on: HCC-2998 colon
HCT-116 colon = tested on: HCT-116 colon
HCT-15 colon = tested on: HCT-15 colon
HL-60(TB) leukemia = tested on: HL-60(TB) leukemia
HOP-62 NSCLC = tested on: HOP-62 NSCLC
HOP-92 NSCLC = tested on: HOP-92 NSCLC
HS 578T breast = tested on: HS 578T breast
HT29 colon = tested on: HT29 colon
IGROV1 ovarian = tested on: IGROV1 ovarian
K-562 leukemia = tested on: K-562 leukemia
KM12 colon = tested on: KM12 colon
LOX IMVI melanoma = tested on: LOX IMVI melanoma
M14 melanoma = tested on: M14 melanoma
MALME-3M melanoma = tested on: MALME-3M melanoma
MCF7 breast = tested on: MCF7 breast
MDA-MB-231 breast = tested on: MDA-MB-231 breast
MOLT-4 leukemia = tested on: MOLT-4 leukemia
NCI-H23 lung = tested on: NCI-H23 lung
NCI-H460 lung = tested on: NCI-H460 lung
NCI-H522 lung = tested on: NCI-H522 lung
NCI/ADR-RES ovarian = tested on: NCI/ADR-RES ovarian
OVCAR-3 ovarian = tested on: OVCAR-3 ovarian
OVCAR-5 ovarian = tested on: OVCAR-5 ovarian
OVCAR-8 ovarian = tested on: OVCAR-8 ovarian
PC-3 prostate = tested on: PC-3 prostate
RPMI-8226 leukemia = tested on: RPMI-8226 leukemia
RXF 393 renal = tested on: RXF 393 renal
SF-268 CNS = tested on: SF-268 CNS
SF-295 CNS = tested on: SF-295 CNS
SF-539 CNS = tested on: SF-539 CNS
SK-MEL-2 melanoma = tested on: SK-MEL-2 melanoma
SK-MEL-5 melanoma = tested on: SK-MEL-5 melanoma
SN12C renal = tested on: SN12C renal
SNB-19 CNS = tested on: SNB-19 CNS
SR leukemia = tested on: SR leukemia
SW-620 colon = tested on: SW-620 colon
TK-10 renal = tested on: TK-10 renal
U251 CNS = tested on: U251 CNS
UACC-257 melanoma = tested on: UACC-257 melanoma
UACC-62 melanoma = tested on: UACC-62 melanoma
UO-31 renal = tested on: UO-31 renal
MDA-MB-435 = tested on: MDA-MB-435
NCI-H226 lung = tested on: NCI-H226 lung
OVCAR-4 ovarian = tested on: OVCAR-4 ovarian
SK-MEL-28 melanoma = tested on: SK-MEL-28 melanoma
SK-OV-3 ovarian = tested on: SK-OV-3 ovarian
SNB-75 CNS = tested on: SNB-75 CNS
T-47D breast = tested on: T-47D breast

Q: What does the source list for `COc1ccc2c(c1)[nH]c(=O)c1c3ccccc3cn21`?
A: GI50 (786-0 renal): 41.3 nM; TGI (786-0 renal): 1840 nM and 2160 nM; GI50 (A498 renal): 22.3 nM and < 37.5 nM; GI50 (A549 NSCLC): 67 nM; TGI (A549 NSCLC): 1650 nM and 1690 nM; GI50 (ACHN renal): 125 nM; TGI (ACHN renal): 1830 nM and 6410 nM; GI50 (BT-549 breast): 54.9 nM; TGI (BT-549 breast): 2030 nM and 3830 nM; GI50 (CAKI-1 renal): 35.5 nM; TGI (CAKI-1 renal): 1970 nM and 5380 nM; GI50 (CCRF-CEM leukemia): 30 nM; GI50 (COLO 205 colon): 41.2 nM; TGI (COLO 205 colon): 1160 nM; TGI (DU-145 prostate): 11900 nM; GI50 (EKVX NSCLC): 90.7 nM and < 47.8 nM; TGI (EKVX NSCLC): 19100 nM; GI50 (HCC-2998 colon): 18.3 nM; TGI (HCC-2998 colon): 49.2 nM; GI50 (HCT-116 colon): 39.5 nM; TGI (HCT-116 colon): 1320 nM and 1120 nM; GI50 (HCT-15 colon): 26.2 nM and < 17.7 nM; GI50 (HL-60(TB) leukemia): 11.4 nM; TGI (HL-60(TB) leukemia): 60.7 nM; GI50 (HOP-62 NSCLC): 31.2 nM; TGI (HOP-62 NSCLC): 1230 nM; GI50 (HOP-92 NSCLC): 1010 nM and 2180 nM; TGI (HOP-92 NSCLC): 15900 nM; GI50 (HS 578T breast): 50.8 nM; TGI (HS 578T breast): 2710 nM and 14100 nM; GI50 (HT29 colon): 34 nM; GI50 (IGROV1 ovarian): 73.4 nM and < 11.4 nM; TGI (IGROV1 ovarian): 2270 nM and 16000 nM; GI50 (K-562 leukemia): 8.92 nM; GI50 (KM12 colon): 33.1 nM and < 48.6 nM; GI50 (LOX IMVI melanoma): 71.2 nM; TGI (LOX IMVI melanoma): 1770 nM and 2090 nM; TGI (M14 melanoma): 12900 nM; TGI (MALME-3M melanoma): 14900 nM; GI50 (MCF7 breast): 28.2 nM and < 37.8 nM; TGI (MCF7 breast): 1460 nM and 12700 nM; GI50 (MDA-MB-231 breast): 56.5 nM and 148 nM; TGI (MDA-MB-231 breast): 740 nM and 1080 nM; GI50 (MOLT-4 leukemia): 77.8 nM; TGI (MOLT-4 leukemia): 2140 nM and 9950 nM; TGI (NCI-H23 lung): 3390 nM and 14600 nM; GI50 (NCI-H460 lung): 34.8 nM; TGI (NCI-H460 lung): 1120 nM; GI50 (NCI-H522 lung): 59.7 nM; TGI (NCI-H522 lung): 2280 nM and 1480 nM; GI50 (NCI/ADR-RES ovarian): 21.3 nM; TGI (NCI/ADR-RES ovarian): 57.5 nM; GI50 (OVCAR-3 ovarian): 22.3 nM; TGI (OVCAR-3 ovarian): 65.2 nM; GI50 (OVCAR-5 ovarian): 101 nM; TGI (OVCAR-5 ovarian): 7860 nM and 5560 nM; GI50 (OVCAR-8 ovarian): 58.1 nM; TGI (OVCAR-8 ovarian): 2360 nM and 5180 nM; GI50 (PC-3 prostate): 36.8 nM; TGI (PC-3 prostate): 2550 nM and 3040 nM; GI50 (RPMI-8226 leukemia): 36.6 nM; TGI (RPMI-8226 leukemia): 1400 nM and 400 nM; GI50 (RXF 393 renal): 20.4 nM; TGI (RXF 393 renal): 3190 nM and 2470 nM; GI50 (SF-268 CNS): 73.8 nM; GI50 (SF-295 CNS): 26.8 nM; TGI (SF-295 CNS): 1050 nM; GI50 (SF-539 CNS): 22.8 nM; TGI (SF-539 CNS): 70.4 nM and 207 nM; TGI (SK-MEL-2 melanoma): 2490 nM and 18700 nM; GI50 (SK-MEL-5 melanoma): 28.2 nM; TGI (SK-MEL-5 melanoma): 1170 nM and 728 nM; GI50 (SN12C renal): 57.1 nM and 280 nM; TGI (SN12C renal): 2080 nM and 8970 nM; GI50 (SNB-19 CNS): 38.7 nM; TGI (SNB-19 CNS): 4050 nM and 26400 nM; TGI (SR leukemia): 2040 nM; GI50 (SW-620 colon): 26.4 nM; TGI (SW-620 colon): 1420 nM and 1510 nM; GI50 (TK-10 renal): 515 nM and 265 nM; TGI (TK-10 renal): 2430 nM and 2210 nM; GI50 (U251 CNS): 43.6 nM; TGI (U251 CNS): 1520 nM and 4440 nM; GI50 (UACC-257 melanoma): 5130 nM and 12700 nM; TGI (UACC-257 melanoma): 30800 nM; GI50 (UACC-62 melanoma): 73.8 nM; TGI (UACC-62 melanoma): 1890 nM and 13300 nM; GI50 (UO-31 renal): 79.5 nM; TGI (UO-31 renal): 2260 nM and 5820 nM

Q: Which results are given for `COc1cc2c(cc1OCCCOS(C)(=O)=O)N=C[C@@H]1CCCN1C2=O`?
A: TGI (786-0 renal): > 100000 nM; TGI (A498 renal): > 100000 nM; TGI (A549 NSCLC): > 100000 nM; TGI (ACHN renal): > 100000 nM; TGI (CAKI-1 renal): > 100000 nM; GI50 (CCRF-CEM leukemia): 52800 nM; TGI (CCRF-CEM leukemia): > 100000 nM; TGI (COLO 205 colon): > 100000 nM; TGI (DU-145 prostate): > 100000 nM; TGI (EKVX NSCLC): > 100000 nM; TGI (HCC-2998 colon): > 100000 nM; TGI (HCT-116 colon): > 100000 nM; TGI (HCT-15 colon): > 100000 nM; TGI (HL-60(TB) leukemia): > 100000 nM; TGI (HOP-92 NSCLC): > 100000 nM; TGI (HS 578T breast): > 100000 nM; TGI (HT29 colon): > 100000 nM; TGI (IGROV1 ovarian): > 100000 nM; TGI (KM12 colon): > 100000 nM; TGI (LOX IMVI melanoma): > 100000 nM; TGI (M14 melanoma): > 100000 nM; TGI (MALME-3M melanoma): > 100000 nM; TGI (MCF7 breast): > 100000 nM; TGI (MDA-MB-231 breast): > 100000 nM; TGI (MDA-MB-435): > 100000 nM; TGI (MOLT-4 leukemia): > 100000 nM; TGI (NCI-H226 lung): > 100000 nM; TGI (NCI-H23 lung): > 100000 nM; TGI (NCI-H460 lung): > 100000 nM; TGI (NCI-H522 lung): > 100000 nM; TGI (NCI/ADR-RES ovarian): > 100000 nM; TGI (OVCAR-3 ovarian): > 100000 nM; GI50 (OVCAR-4 ovarian): 70400 nM; TGI (OVCAR-4 ovarian): > 100000 nM; TGI (OVCAR-8 ovarian): > 100000 nM; TGI (RPMI-8226 leukemia): > 100000 nM; TGI (RXF 393 renal): > 100000 nM; TGI (SF-268 CNS): > 100000 nM; TGI (SF-295 CNS): > 100000 nM; TGI (SF-539 CNS): > 100000 nM; TGI (SK-MEL-2 melanoma): > 100000 nM; TGI (SK-MEL-28 melanoma): > 100000 nM; TGI (SK-MEL-5 melanoma): > 100000 nM; TGI (SK-OV-3 ovarian): > 100000 nM; TGI (SN12C renal): > 100000 nM; TGI (SNB-19 CNS): > 100000 nM; GI50 (SNB-75 CNS): 94700 nM; TGI (SNB-75 CNS): > 100000 nM; GI50 (SR leukemia): 62900 nM; TGI (SR leukemia): > 100000 nM; TGI (SW-620 colon): > 100000 nM; TGI (T-47D breast): > 100000 nM; TGI (TK-10 renal): > 100000 nM; TGI (U251 CNS): > 100000 nM; TGI (UACC-257 melanoma): > 100000 nM; TGI (UACC-62 melanoma): > 100000 nM; TGI (UO-31 renal): > 100000 nM
